Test results taken from patent US11986532B2 (Arvinas Operations, Inc., priority 2021, dated 2024).
Where two headings read alike, the source gives them in different places.

Biological target: T1, BCL6 (Homo sapiens, UniProt P41182)
T1 construct: endogenous in cells; host or cells: T47D breast cancer epithelial cells
Assay: Immunofluorescence protocol for high content imaging of BCL6 (degradation) in T47D cells, 3 days compound treatment
Format: cell-based
Conditions: for Dmax: read-out: Mean Dmax (%)** category; for DC50: read-out: Mean DC50 (nM)* category
Outline: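 Read-out: high-content imaging of anti-BCL6 immunofluorescence (Alexa-488 secondary) with CellMask and Hoechst counterstains, 10×, 4 fields/well. Cells had 3 days of compound exposure at 37° C, 5% CO2, 11-point 3-fold series from a final top of 0.1 or 1 μM.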

[1] = T47D cells, 3 days compound treatment

Row | SMILES | Dmax (T47D) | DC50 | DC50 [1] | Dmax [1]
1 | CNC(=O)COc1cc2cc(Nc3nc(N4CCC(N5CCC6(CN(CC7CCN(c8ccc9c(c8)C(=O)N(C8CCC(=O)NC8=O)C9=O)CC7)C6)C5)CC4)ncc3Cl)ccc2n(C(C)C)c1=O (centres unmarked) [Compound 228, 2-({6-[(5-chloro-2-{4-[2-({1-[2-(2,6-dioxopiperidin-3-yl)-1,3-dioxo-2,3-dihydro-1H-isoindol-5-yl]piperidin-4-yl}methyl)-2,6-diazaspiro[3.4]octan-6-yl]piperidin-1-yl}pyrimidin-4-yl)amino]-2-oxo-1-(propan-2-yl)-1,2-dihydroquinolin-3-yl}oxy)-N-methylacetamide] | 50 to 70% | 10 to 50 nM | – | –
2 | CNC(=O)COc1cc2cc(Nc3nc(N4CCC5(CCN(CC6CCN(c7ccc8c(c7)C(=O)N(C7CCC(=O)NC7=O)C8=O)CC6)C5)C4)ncc3Cl)ccc2n(C(C)C)c1=O (centres unmarked) [Compound 4, 2-{[6-({5-chloro-2-[7-({1-[2-(2,6-dioxopiperidin-3-yl)-1,3-dioxo-2,3-dihydro-1H-isoindol-5-yl]piperidin-4-yl}methyl)-2,7-diazaspiro[4.4]nonan-2-yl]pyrimidin-4-yl}amino)-2-oxo-1-(propan-2-yl)-1,2-dihydroquinolin-3-yl]oxy}-N-methylacetamide] | – | – | 10 to 50 nM | < 50%
3 | CNC(=O)COc1cc2cc(Nc3nc(N4CCC(O[C@H]5C[C@H](N6CC7(CCN7c7ccc8c(c7)C(=O)N(C7CCC(=O)NC7=O)C8)C6)C5)CC4)ncc3Cl)ccc2n(C(C)C)c1=O (some centres unmarked) [Compound 330, 2-({6-[(5-chloro-2-{4-[(1r,3r)-3-{1-[2-(2,6-dioxopiperidin-3-yl)-3-oxo-2,3-dihydro-1H-isoindol-5-yl]-1,6-diazaspiro [3.3]heptan-6-yl}cyclobutoxy]piperidin-1-yl}pyrimidin-4-yl)amino]-2-oxo-1-(propan-2-yl)-1,2-dihydroquinolin-3-yl}oxy)-N-methylacetamide] | < 50% | 10 to 50 nM | – | –
4 | CNC(=O)COc1cc2cc(Nc3nc(N4CCC(CN5CCC6(CN(c7ccc8c(c7)CN(C7CCC(=O)NC7=O)C8=O)C6)C(F)(F)C5)CC4)ncc3Cl)ccc2n(C(C)C)c1=O (centres unmarked) [Compound 90, 2-{[6-({5-chloro-2-[4-({2-[2-(2,6-dioxopiperidin-3-yl)-1-oxo-2,3-dihydro-1H-isoindol-5-yl]-5,5-difluoro-2,7-diazaspiro[3.5]nonan-7-yl}methyl)piperidin-1-yl]pyrimidin-4-yl}amino)-2-oxo-1-(propan-2-yl)-1,2-dihydroquinolin-3-yl]oxy}-N-methylacetamide] | – | – | < 10 nM | 50 to 70%
5 | CNC(=O)COc1cc2cc(Nc3nc(N4CCOC5(CN(CCC6CCN(c7cccc8c7C(=O)N(C7CCC(=O)NC7=O)C8=O)CC6)C5)C4)ncc3Cl)ccc2n(C(C)C)c1=O (centres unmarked) [Compound 16] | – | – | ≥ 100 nM | –
6 | CNC(=O)COc1cc2cc(Nc3nc(N4CCC5(CC4)CC(CN4CCN(c6cccc7c6CN(C6CCC(=O)NC6=O)C7=O)CC4)C5)ncc3Cl)ccc2n(C(C)C)c1=O (centres unmarked) [Compound 14, 2-{[6-({5-chloro-2-[2-({4-[2-(2,6-dioxopiperidin-3-yl)-1-oxo-2,3-dihydro-1H-isoindol-4-yl]piperazin-1-yl}methyl)-7-azaspiro[3.5]nonan-7-yl]pyrimidin-4-yl}amino)-2-oxo-1-(propan-2-yl)-1,2-dihydroquinolin-3-yl]oxy}-N-methylacetamide] | – | – | < 10 nM | ≥ 70%
7 | CNC(=O)COc1cc2cc(Nc3cc(N4CCC(CN5CCC6(CC5)CN(c5ccc7c(c5)C(=O)N(C5CCC(=O)NC5=O)C7=O)C6)CC4)ncc3Cl)ccc2n(C(C)C)c1=O (centres unmarked) [Compound 215, 2-{[6-({5-chloro-2-[4-({2-[2-(2,6-dioxopiperidin-3-yl)-1,3-dioxoisoindol-5-yl]-2,7-diazaspiro[3.5]nonan-7-yl}methyl)piperidin-1-yl]pyridin-4-yl}amino)-1-isopropyl-2-oxoquinolin-3-yl]oxy}-N-methylacetamide] | 50 to 70% | 10 to 50 nM | – | –
8 | CNC(=O)COc1cc2cc(Nc3nc(N4CCC(O[C@H]5C[C@H](N6CCN(c7ccc8c(n7)CN(C7CCC(=O)NC7=O)C8=O)CC6)C5)CC4)ncc3Cl)ccc2n(C(C)C)c1=O (some centres unmarked) [Compound 189, 2-((6-((5-chloro-2-(4-((1r,3r)-3-(4-(6-(2,6-dioxopiperidin-3-yl)-5-oxo-6,7-dihydro-5H-pyrrolo[3,4-b]pyridin-2-yl)piperazin-1-yl)cyclobutoxy)piperidin-1-yl)pyrimidin-4-yl)amino)-1-isopropyl-2-oxo-1,2-dihydroquinolin-3-yl)oxy)-N-methylacetamide] | – | – | < 10 nM | 50 to 70%

Further lines, results first:

Row | Dmax (T47D) | DC50 | DC50 [1] | Dmax [1] | SMILES
9 | ≥ 70% | < 10 nM | – | – | CNC(=O)COc1cc2cc(Nc3cc(N4CCC(F)(CN5CCC6(CC5)CN(c5ccc7c(c5)CN(C5CCC(=O)NC5=O)C7=O)C6(C)C)CC4)ncc3Cl)ccc2n(C(C)C)c1=O (centres unmarked) [Compound 240, 2-{[6-({5-chloro-2-[4-({2-[2-(2,6-dioxopiperidin-3-yl)-1-oxo-2,3-dihydro-1H-isoindol-5-yl]-1,1-dimethyl-2,7-diazaspiro[3.5]nonan-7-yl}methyl)-4-fluoropiperidin-1-yl]pyridin-4-yl}amino)-2-oxo-1-(propan-2-yl)-1,2-dihydroquinolin-3-yl]oxy}-N-methylacetamide]
10 | 50 to 70% | < 10 nM | – | – | CNC(=O)COc1cc2cc(Nc3nc(N4CCC(N(C)C5CCC6(CC5)CN(c5ccc7c(c5)C(=O)N(C5CCC(=O)NC5=O)C7=O)C6)CC4)ncc3Cl)ccc2n(C(C)C)c1=O (centres unmarked) [Compound 308, 2-{[6-({5-chloro-2-[4-({2-[2-(2,6-dioxopiperidin-3-yl)-1,3-dioxo-2,3-dihydro-1H-isoindol-5-yl]-2-azaspiro[3.5]nonan-7-yl} (methyl)amino)piperidin-1-yl]pyrimidin-4-yl}amino)-2-oxo-1-(propan-2-yl)-1,2-dihydroquinolin-3-yl]oxy}-N-methylacetamide]
11 | 50 to 70% | < 10 nM | – | – | CNC(=O)COc1cc2cc(Nc3nc(N4CCC(N5CCC56CN(C5CCN(c7ccc8c(c7)CN(C7CCC(=O)NC7=O)C8=O)C5)C6)CC4)ncc3Cl)ccc2n(C(C)C)c1=O (centres unmarked) [Compound 234, 2-{[6-({5-chloro-2-[4-(6-{1-[2-(2,6-dioxopiperidin-3-yl)-1-oxo-2,3-dihydro-1H-isoindol-5-yl]pyrrolidin-3-yl}-1,6-diazaspiro[3.3]heptan-1-yl)piperidin-1-yl]pyrimidin-4-yl}amino)-2-oxo-1-(propan-2-yl)-1,2-dihydroquinolin-3-yl]oxy}-N-methylacetamide]
12 | ≥ 70% | < 10 nM | – | – | CNC(=O)COc1cc2cc(Nc3cc(N4CCC(CN5CCC6(CC5)CN(c5ccc7c(c5F)CN(C5CCC(=O)NC5=O)C7=O)C6(C)C)CC4)ncc3Cl)ccc2n(C(C)C)c1=O (centres unmarked) [Compound 229, 2-{[6-({5-chloro-2-[4-({2-[2-(2,6-dioxopiperidin-3-yl)-4-fluoro-1-oxo-2,3-dihydro-1H-isoindol-5-yl]-1,1-dimethyl-2,7-diazaspiro[3.5]nonan-7-yl}methyl)piperidin-1-yl]pyridin-4-yl}amino)-2-oxo-1-(propan-2-yl)-1,2-dihydroquinolin-3-yl]oxy}-N-methylacetamide]
